Results from the NIST ThermoML archive (doi:10.1016/j.fluid.2008.02.005).

Legend:
[1] = 101.33 kPa, Liquid
[2] = xn = mol fraction of the nth substance listed; conditions: 101 kPa, Liquid

CCCCCCOCCOCCO [2-(2-hexyloxyethoxy)ethanol]
[1]
Conditions	mass density [kg/m3]
288.15 K	924.348
298.15 K	915.522
308.15 K	906.642

CCCCCCOCCOCCO [2-(2-hexyloxyethoxy)ethanol] + CO
mass density [kg/m3], [2]
Conditions	288.15 K	298.15 K	308.15 K
x1 = 0.1165	853.467	844.018	834.816
x1 = 0.162	865.705	856.244	846.965
x1 = 0.2113	875.875	866.451	857.177
x1 = 0.266	884.716	875.458	866.337
x1 = 0.3119	890.88	881.656	872.742
x1 = 0.3606	896.388	887.19	878.481
x1 = 0.4012	900.31	891.16	882.585
x1 = 0.4577	904.872	895.844	887.363
x1 = 0.5071	908.159	899.262	890.741
x1 = 0.5578	911.041	902.168	893.568
x1 = 0.6037	913.218	904.353	895.701
x1 = 0.6644	915.682	906.87	898.078
x1 = 0.7102	917.283	908.456	899.602
x1 = 0.7533	918.633	909.864	901.011
x1 = 0.7928	919.837	911.054	902.199
x1 = 0.8517	921.511	912.714	903.777
x1 = 0.9	922.714	913.911	905.244
x1 = 0.9674	924.001	915.182	906.508

CCCCCCOCCOCCO [2-(2-hexyloxyethoxy)ethanol] + CCCO
mass density [kg/m3], [2]
Conditions	288.15 K	298.15 K	308.15 K
x1 = 0.1085	837.518	829.325	820.919
x1 = 0.1608	848.615	840.381	831.968
x1 = 0.2102	857.751	849.425	841.022
x1 = 0.2477	863.891	855.521	847.161
x1 = 0.2972	871.227	862.829	854.397
x1 = 0.3493	878.129	869.65	861.101
x1 = 0.4048	884.6	876.088	867.464
x1 = 0.46	890.404	881.84	873.153
x1 = 0.5003	894.261	885.64	876.925
x1 = 0.5584	899.282	890.668	881.873
x1 = 0.6066	903.088	894.428	885.633
x1 = 0.6604	906.948	898.225	889.461
x1 = 0.6964	909.32	900.561	891.847
x1 = 0.7532	912.745	903.981	895.267
x1 = 0.8054	915.595	906.826	898.1
x1 = 0.8563	918.152	909.394	900.587
x1 = 0.9044	920.357	911.598	902.735
x1 = 0.9593	922.69	913.937	905.015

CO [methanol]
[1]
Conditions	mass density [kg/m3]
288.15 K	795.969
298.15 K	786.548
308.15 K	777.067
